Active and inactive are the calls of the source.
Columns and labels:
[1] = A cytotoxicity screen of small molecule inhibitors of the PhoP region in Salmonella typhi identified in the primary screen. [Related pubchem assays: 1850, 1864, 1985 ]; type: functional
[2] = molecular target: Disintegrin and metalloproteinase domain-containing protein 17 (Homo sapiens, UniProt P78536); assay: exosite inhibitors of ADAM17, dose response, biochemical (AID 743260)
[3] = inhibition of ADAM10 peptide cleavage – biochemical, FRET peptide substrate, recombinant human ADAM10, selectivity assay for ADAM17 exosite inhibitor project, dose response (AID 743259);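 further: ADAM10 enzyme cleaving a FRET peptide substrate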
[4] = viability inhibitors of stage V gametocytes – luminescence, dose response (AID 1117278); type: functional, cell-based;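 further: gametocytes exposed to compound for 24 hours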
[5] = viability loss in human Jurkat cells – cell-based, luminescence, cytotoxicity control for P. falciparum gametocyte viability project, dose response (AID 1117277); type: functional;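 further: potency reflects loss of cellular ATP meaning fewer viable cells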
[6] = molecular target: Paired box protein Pax-8 (Homo sapiens, UniProt Q06710); assay: PAX8 transcriptional activity inhibition in RMG-I – RMG-I cells, luciferase, cherry-pick, dose response (AID 687027); type: functional, cell-based;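 further: luciferase reporter driven by Pax8 target thyroperoxidase promoter measured by SteadyGlo luminescence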
[7] = IGROV1 cell killing – plate reader, dry powder samples, PAX8 inhibitor project, dose response (AID 743043); type: functional, cell-based; settings: IGROV-1
[8] = general cell-killing toxicity readout – plate reader, dry powder samples, cytotoxicity control for PAX8 inhibitor project, dose response (AID 743021); type: functional, cell-based
[9] = OVCAR8 cell viability loss – plate reader, dry powder samples, PAX8 project, dose response (AID 743197); type: functional, cell-based; settings: OVCAR-8
[10] = molecular target: Ephrin type-A receptor 4 (Mus musculus, UniProt Q03137); assay: EphA4 ligand-binding antagonists – biochemical, colorimetric, mouse EphA4, primary screen (AID 689); type: functional
[11] = molecular target: T1, Mannose-6-phosphate isomerase (Homo sapiens, UniProt P34949); assay: MPI inhibition at elevated mannose 6-phosphate – biochemical, fluorescence intensity, high mannose 6-phosphate, primary screen (AID 1220)
T1 sequence (P34949 whole entry): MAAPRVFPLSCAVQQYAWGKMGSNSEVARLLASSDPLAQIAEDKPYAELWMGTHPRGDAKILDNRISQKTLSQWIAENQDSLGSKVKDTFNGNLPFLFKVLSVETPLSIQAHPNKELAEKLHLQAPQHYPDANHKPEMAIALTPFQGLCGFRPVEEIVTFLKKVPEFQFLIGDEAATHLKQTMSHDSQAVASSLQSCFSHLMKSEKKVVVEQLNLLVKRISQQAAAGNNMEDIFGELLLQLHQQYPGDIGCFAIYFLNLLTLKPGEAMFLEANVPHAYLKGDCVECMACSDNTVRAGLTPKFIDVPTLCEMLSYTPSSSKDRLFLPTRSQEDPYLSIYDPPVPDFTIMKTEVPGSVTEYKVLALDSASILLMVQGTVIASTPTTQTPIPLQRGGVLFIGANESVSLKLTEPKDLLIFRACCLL

Sequence of Disintegrin and metalloproteinase domain-containing protein 17 (P78536 whole entry, the tested form may be a part): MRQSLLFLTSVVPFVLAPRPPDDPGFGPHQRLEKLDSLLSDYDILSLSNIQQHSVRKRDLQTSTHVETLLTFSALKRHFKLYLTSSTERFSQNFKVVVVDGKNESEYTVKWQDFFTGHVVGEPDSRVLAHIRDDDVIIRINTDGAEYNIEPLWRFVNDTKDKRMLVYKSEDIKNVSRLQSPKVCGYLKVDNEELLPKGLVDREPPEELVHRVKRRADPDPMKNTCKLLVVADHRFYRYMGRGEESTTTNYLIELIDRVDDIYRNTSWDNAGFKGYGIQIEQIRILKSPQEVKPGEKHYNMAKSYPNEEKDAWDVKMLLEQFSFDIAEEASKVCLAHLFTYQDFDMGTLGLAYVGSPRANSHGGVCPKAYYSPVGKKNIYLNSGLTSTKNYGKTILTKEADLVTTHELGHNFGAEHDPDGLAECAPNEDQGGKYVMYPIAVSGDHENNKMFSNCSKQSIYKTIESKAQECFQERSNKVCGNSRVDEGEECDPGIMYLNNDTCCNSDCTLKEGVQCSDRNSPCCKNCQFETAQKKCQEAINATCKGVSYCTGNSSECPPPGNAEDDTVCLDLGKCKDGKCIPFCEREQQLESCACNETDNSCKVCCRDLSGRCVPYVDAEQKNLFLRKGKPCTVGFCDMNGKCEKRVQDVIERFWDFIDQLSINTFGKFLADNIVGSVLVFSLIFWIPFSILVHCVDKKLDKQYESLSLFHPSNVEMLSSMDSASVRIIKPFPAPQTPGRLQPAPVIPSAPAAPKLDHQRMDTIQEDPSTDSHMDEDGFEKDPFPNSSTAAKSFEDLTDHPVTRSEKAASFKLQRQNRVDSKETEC
Sequence of Paired box protein Pax-8 (Q06710 whole entry): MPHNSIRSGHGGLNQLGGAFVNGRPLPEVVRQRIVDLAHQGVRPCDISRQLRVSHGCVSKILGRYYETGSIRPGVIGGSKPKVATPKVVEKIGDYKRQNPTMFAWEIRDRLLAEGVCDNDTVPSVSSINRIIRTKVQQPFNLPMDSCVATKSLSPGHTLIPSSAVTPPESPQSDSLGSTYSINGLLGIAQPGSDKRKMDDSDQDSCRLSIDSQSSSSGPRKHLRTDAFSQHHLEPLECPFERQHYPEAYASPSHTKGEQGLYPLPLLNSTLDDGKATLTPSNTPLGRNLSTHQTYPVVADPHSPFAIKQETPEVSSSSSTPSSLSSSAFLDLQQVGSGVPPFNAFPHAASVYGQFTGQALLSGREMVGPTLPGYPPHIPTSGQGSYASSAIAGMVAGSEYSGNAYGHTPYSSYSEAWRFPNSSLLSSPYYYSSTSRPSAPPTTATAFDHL
Sequence of Ephrin type-A receptor 4 (Q03137 whole entry): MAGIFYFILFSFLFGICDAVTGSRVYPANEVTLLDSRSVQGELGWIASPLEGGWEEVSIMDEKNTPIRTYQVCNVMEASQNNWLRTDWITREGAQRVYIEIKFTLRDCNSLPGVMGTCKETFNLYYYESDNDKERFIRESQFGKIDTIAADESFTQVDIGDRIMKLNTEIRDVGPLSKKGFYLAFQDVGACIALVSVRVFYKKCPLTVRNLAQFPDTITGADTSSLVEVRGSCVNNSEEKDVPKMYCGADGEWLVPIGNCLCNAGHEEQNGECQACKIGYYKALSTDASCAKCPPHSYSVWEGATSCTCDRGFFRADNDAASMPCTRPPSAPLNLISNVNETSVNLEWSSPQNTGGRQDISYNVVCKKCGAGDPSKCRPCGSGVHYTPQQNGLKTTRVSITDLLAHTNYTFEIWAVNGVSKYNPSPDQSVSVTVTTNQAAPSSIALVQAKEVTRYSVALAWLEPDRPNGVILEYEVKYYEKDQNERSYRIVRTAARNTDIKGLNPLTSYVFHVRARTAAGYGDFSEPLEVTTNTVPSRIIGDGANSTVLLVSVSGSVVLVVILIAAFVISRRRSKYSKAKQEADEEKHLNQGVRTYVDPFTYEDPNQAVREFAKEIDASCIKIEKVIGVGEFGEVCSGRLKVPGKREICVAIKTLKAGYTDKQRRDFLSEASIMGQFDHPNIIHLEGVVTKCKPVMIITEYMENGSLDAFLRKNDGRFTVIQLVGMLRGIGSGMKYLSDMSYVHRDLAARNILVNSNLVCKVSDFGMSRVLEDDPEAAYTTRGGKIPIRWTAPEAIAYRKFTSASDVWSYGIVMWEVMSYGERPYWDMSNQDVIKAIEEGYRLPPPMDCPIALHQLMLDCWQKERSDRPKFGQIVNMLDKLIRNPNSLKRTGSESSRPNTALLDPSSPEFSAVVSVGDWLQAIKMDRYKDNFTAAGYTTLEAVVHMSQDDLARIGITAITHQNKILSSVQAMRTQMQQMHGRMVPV

Cc1cc(C)nc(SCC(=O)NCc2ccco2)n1
EC50 [1]: > 50 µM (active)

CN(Cc1ccc(F)cc1)C(=O)c1cccc(OCc2ccccc2)c1
IC50 [2]: > 69.5 µM (inactive) | IC50 [3]: 21.5 µM (inactive)

CCOC(=O)CN1C2=NCCN2c2ccccc21
IC50 [4]: > 109 µM (inactive) | IC50 [5]: > 83.4 µM (inactive)

COc1ccc(NS(=O)(=O)c2ccc(OC)c(NC(=O)CCC3CCCC3)c2)cc1
IC50 [2]: > 69.5 µM (inactive) | IC50 [3]: > 69.5 µM (inactive)

CNS(=O)(=O)c1cccc(C(=O)OCc2cc(=O)oc3c(C)c(O)ccc23)c1
EC50 [1]: > 50 µM (active)

Cc1sc2c(=O)n3c(nc2c1C(=O)NC1CCCCC1)CCCCC3
IC50 [4]: > 109 µM (inactive) | IC50 [5]: > 83.3 µM (inactive)

C[C@@H]1CN([C@H](C)CO)C(=O)c2cc(NC(=O)Nc3ccc(C(F)(F)F)cc3)ccc2O[C@@H](C)CCCCO[C@H]1CN(C)Cc1ccc2c(c1)OCO2
AC50 [6]: 7.63 µM (active) | AC50 [7]: 26.7 µM (active) | AC50 [8]: 66.4 µM (active) | AC50 [9]: 31.6 µM (active)

CSc1ccccc1/N=C/c1nc(-c2ccccc2)oc1O
IC50 [10]: 37.6 µM (active)

COCCO/C(O)=C1\C(C)=NC2(O)c3ccccc3C(=O)C12O (stereo unspecified)
IC50 [11]: > 50 µM (not active)

Source: ChEMBL document CHEMBL1201862, “PubChem BioAssay data set” (2004)
